What all share (assay type): in vivo
Data set [1] concerns Beet Armyworm (Spodoptera exigua, LAPHEG) ("BAW"). In words: Bioassays on BAW, 128-well diet tray assay. Conditions: 168 h, second instar larvae, 50 μg/cm^2 on artificial diet, 25° C., five to seven days, average of eight wells, read-out: BAW % Control (or Mortality) rating. In outline: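 One to five second-instar larvae were placed per well on artificial diet surface-treated with 50 μg/cm^2 compound from 90:10 acetone-water, dried before infestation. Trays were held at 25 °C, 14:10 light-dark, for five to seven days. Percent mortality was averaged over eight wells.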

Data set [2] concerns Cabbage Looper (Trichoplusia ni, TRIPNI) ("CL"). In words: Bioassays on CL, 128-well diet tray assay. Conditions: 168 h, second instar larvae, 50 μg/cm^2 on artificial diet, 25° C., five to seven days, average of eight wells, read-out: CL % Control (or Mortality) rating. In outline: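 Second-instar larvae (one to five per well) on artificial diet surface-treated with 50 μg/cm^2 compound in 90:10 acetone-water, eight wells per treatment. Held at 25° C., 14:10 light-dark for five to seven days. Percent mortality scored per well and averaged over the eight wells.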

Data set [3] relates to Green Peach Aphid (Myzus persicae, MYZUPE) ("GPA"). In words: Bioassays on GPA, foliar spray of infested cabbage seedlings. Conditions: 72 h, 200 ppm spray on cabbage seedlings, graded after three days, Abbott corrected % control, read-out: GPA % Control (or Mortality) rating. How it is done:
Certain molecules disclosed in this document were tested against GPA using procedures described in the following example. In the reporting of the results, the “GPA Rating Table” was used (See Table Section).
Cabbage seedlings grown in 3-inch pots, with 2-3 small (3-5 cm) true leaves, were used as test substrate. The seedlings were infested with 20-50 GPA (wingless adult and nymph stages) one day prior to chemical application. Four pots with individual seedlings were used for each treatment. Test compounds (2 mg) were dissolved in 2 mL of acetone/methanol (1:1) solvent, forming stock solutions of 1000 ppm test compound. The stock solutions were diluted 5× with 0.025% Tween 20 in water to obtain the solution at 200 ppm test compound. A hand-held aspirator-type sprayer was used for spraying a solution to both sides of […] leaves until runoff. Reference plants (solvent check) were sprayed with the diluent only containing 20% by volume of acetone/methanol (1:1) solvent. Treated plants were held in a holding room for three days at approximately 25° C. and ambient relative humidity (RH) prior to grading. Evaluation was conducted by counting the number of live aphids per plant under a microscope. Percent Control was measured by using Abbott's correction formula (W. S. Abbott, “A Method of Computing the Effectiveness of an Insecticide” J. Econ. Entomol. 18 (1925), pp. 265-267) as follows. Corrected % Control=100*(X−Y)/X • where • X=No. of live aphids on solvent check plants and • Y=No. of live aphids on treated plants

Data set [4] relates to Yellow Fever Mosquito (Aedes aegypti, AEDSAE) ("YFM"). Kind of data set: Bioassays on YFM, 96-well plate larval assay. Conditions: about 1 day-old larvae, from 4000 ppm DMSO master plate diluted, room temperature, scored after 3 days. An outline of the steps: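 Compounds from 4000 ppm DMSO master plates, diluted in 90:10 water:acetone, dispensed into 96-well plates, six replicates. About 1-day-old larvae added in liver-powder water. Wells covered, held 3 days at room temperature, then scored for mortality.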

Molecules are shown by their SMILES.

With `CCc1ccccc1-c1ccccc1NC(=S)Nc1ccc(-c2ncn(-c3ccc(OC(F)(F)F)cc3)n2)cc1` [F4, 1-(2′-Ethyl-[1,1′-biphenyl]-2-yl)-3-(4-(1-(4-(trifluoromethoxy)phenyl)-1H-1,2,4-triazol-3-yl)phenyl)thiourea], the mortality at 50 µg/cm2 in data set [1] and in data set [2] was 50 to 100% throughout. Besides, the mortality (as a rule, the percentage killed) at 200 ppm in data set [3] came out at 0%. Moreover, the “YFM % Control (or Mortality) rating” value in data set [4] is “A (80-100)”.

As for `C#Cc1ccccc1NC(=O)Nc1ccc(-c2ncn(-c3ccc(OC(F)(F)F)cc3)n2)cc1` [F5, 1-(2-Ethynylphenyl)-3-(4-(1-(4-(trifluoromethoxy)phenyl)-1H-1,2,4-triazol-3-yl)phenyl)urea], the mortality at 50 µg/cm2 in data set [1] and in data set [2] was 50 to 100% in each case. Moreover, the mortality at 200 ppm in data set [3] is 0%. Moreover, the “YFM % Control (or Mortality) rating” value in data set [4] is “D (No activity noticed in this bioassay)”.

For the compound `CC(C)c1ccccc1N(C(=O)Nc1ccc(-c2ncn(-c3ccc(OC(F)(F)F)cc3)n2)cc1)C(N)=S` [F6, N-[2-(Propan-2-yl)phenyl]-N-(4-{1-[4-(trifluoromethoxy)phenyl]-1H-1,2,4-triazol-3-yl}phenyl)dicarbonimidothioic diamide], the mortality at 50 µg/cm2 in data set [1] and in data set [2] was 50 to 100% each time. Also, the mortality at 200 ppm in data set [3] is 0 to 80%. In data set [4], the “YFM % Control (or Mortality) rating” value was “A (80-100)”.

With `Cc1ccccc1-c1cccnc1NC(=S)Nc1ccc(-c2ncn(-c3ccc(OC(F)(F)F)cc3)n2)cc1` [F11, 1-(3-(o-Tolyl)pyridin-2-yl)-3-(4-(1-(4-(trifluoromethoxy)phenyl)-1H-1,2,4-triazol-3-yl)phenyl)thiourea], in data set [1], the mortality at 50 µg/cm2 was 50 to 100%. Further, the mortality at 200 ppm in data set [3] lay within 0 to 80%. For the same compound, the “YFM % Control (or Mortality) rating” value in data set [4] is reported as “D (No activity noticed in this bioassay)”.

For `Fc1ccc(NC(=S)Nc2ccc(-c3ncn(-c4ccc(OC(F)(F)F)cc4)n3)cc2)cc1` [F72, 1-(4-Fluorophenyl)-3-(4-(1-(4-(trifluoromethoxy)phenyl)-1H-1,2,4-triazol-3-yl)phenyl)thiourea], the mortality at 50 µg/cm2 in data set [1] fell in the range of 50 to 100%. In addition, the mortality at 200 ppm in data set [3] amounted to 0%. Moreover, in data set [4], the “YFM % Control (or Mortality) rating” value is given as “B (More than 0 - Less than 80)”.

Consider `COc1ccc(NC(=O)NCCCCc2ccc(-c3ncn(-c4ccc(OC(F)(F)F)cc4)n3)cc2)cc1` [F97, 1-(4-Methoxyphenyl)-3-(4-(4-(1-(4-(trifluoromethoxy)phenyl)-1H-1,2,4-triazol-3-yl)phenyl)butyl)urea], for which the figures for the mortality at 50 µg/cm2 in data set [1] and in data set [2] were 0 to 50% and 0%, respectively. For the same compound, the “YFM % Control (or Mortality) rating” value in data set [4] is “D (No activity noticed in this bioassay)”.

As for `CCc1ccccc1NC(=O)NCCCCc1ccc(-c2ncn(-c3ccc(OC(F)(F)F)cc3)n2)cc1` [F98, 1-(2-Ethylphenyl)-3-(4-(4-(1-(4-(trifluoromethoxy)phenyl)-1H-1,2,4-triazol-3-yl)phenyl)butyl)urea], the figures for the mortality at 50 µg/cm2 in data set [1] and in data set [2] were 0 to 50% and 0%, respectively. Also, in data set [4], the “YFM % Control (or Mortality) rating” value is “D (No activity noticed in this bioassay)”.

For the compound `Cc1ccc(NC(=O)NCCCCc2ccc(-c3ncn(-c4ccc(OC(F)(F)F)cc4)n3)cc2)cc1` [F99, 1-(p-Tolyl)-3-(4-(4-(1-(4-(trifluoromethoxy)phenyl)-1H-1,2,4-triazol-3-yl)phenyl)butyl)urea], the mortality at 50 µg/cm2 was 0 to 50% in data set [1] and 0% in data set [2]. Moreover, the “YFM % Control (or Mortality) rating” value in data set [4] was “D (No activity noticed in this bioassay)”.

With `Cc1ccccc1NC(=O)NCc1ccc(-c2ncn(-c3ccc(OC(F)(F)F)cc3)n2)cc1` [F100, 1-(o-Tolyl)-3-(4-(1-(4-(trifluoromethoxy)phenyl)-1H-1,2,4-triazol-3-yl)benzyl)urea], the mortality at 50 µg/cm2 in data set [1] and in data set [2] was 0% each time. In addition, the “YFM % Control (or Mortality) rating” value in data set [4] was “D (No activity noticed in this bioassay)”.

For `Cc1ccc(NC(=O)NCc2ccc(-c3ncn(-c4ccc(OC(F)(F)F)cc4)n3)cc2)cc1` [F102, 1-(p-Tolyl)-3-(4-(1-(4-(trifluoromethoxy)phenyl)-1H-1,2,4-triazol-3-yl)benzyl)urea], the mortality at 50 µg/cm2 in data set [1] and in data set [2] was 0% throughout. Besides, the “YFM % Control (or Mortality) rating” value in data set [4] is reported as “D (No activity noticed in this bioassay)”.

Regarding `O=C(NCc1ccc(-c2ncn(-c3ccc(OC(F)(F)F)cc3)n2)cc1)Nc1cccc(Cl)c1` [F103, 1-(3-Chlorophenyl)-3-(4-(1-(4-(trifluoromethoxy)phenyl)-1H-1,2,4-triazol-3-yl)benzyl)urea], the values for the mortality at 50 µg/cm2 in data set [1] and in data set [2] were 0 to 50% and 50 to 100%, respectively. Further, in data set [4], the “YFM % Control (or Mortality) rating” value was “A (80-100)”.

For the compound `O=C(NCc1ccc(-c2ncn(-c3ccc(OC(F)(F)F)cc3)n2)cc1)Nc1ccccc1Cl` [F104, 1-(2-Chlorophenyl)-3-(4-(1-(4-(trifluoromethoxy)phenyl)-1H-1,2,4-triazol-3-yl)benzyl)urea], the mortality at 50 µg/cm2 in data set [1] lay in the range of 50 to 100%; in data set [2], 0 to 50%. In data set [4], the “YFM % Control (or Mortality) rating” value is recorded as “B (More than 0 - Less than 80)”.

Turning to `O=C(NCc1ccc(-c2ncn(-c3ccc(OC(F)(F)F)cc3)n2)cc1)Nc1ccc(Cl)cc1` [F105, 1-(4-Chlorophenyl)-3-(4-(1-(4-(trifluoromethoxy)phenyl)-1H-1,2,4-triazol-3-yl)benzyl)urea], the mortality at 50 µg/cm2 in data set [1] and in data set [2] was 50 to 100% in each case. In data set [4], the “YFM % Control (or Mortality) rating” value is “B (More than 0 - Less than 80)”.

With `COc1ccccc1NC(=O)NCc1ccc(-c2ncn(-c3ccc(OC(F)(F)F)cc3)n2)cc1` [F106, 1-(2-Methoxyphenyl)-3-(4-(1-(4-(trifluoromethoxy)phenyl)-1H-1,2,4-triazol-3-yl)benzyl)urea], the mortality at 50 µg/cm2 in data set [1] and in data set [2] was 0% throughout. Also, in data set [4], the “YFM % Control (or Mortality) rating” value is given as “D (No activity noticed in this bioassay)”.

On to `COc1cccc(NC(=O)NCc2ccc(-c3ncn(-c4ccc(OC(F)(F)F)cc4)n3)cc2)c1` [F107, 1-(3-Methoxyphenyl)-3-(4-(1-(4-(trifluoromethoxy)phenyl)-1H-1,2,4-triazol-3-yl)benzyl)urea], for which the mortality at 50 µg/cm2 in data set [1] and in data set [2] was 0% in each case. In data set [4], the “YFM % Control (or Mortality) rating” value was “B (More than 0 - Less than 80)”.

`Cc1cccc(NC(=O)NCc2ccc(-c3ncn(-c4ccc(OC(F)(F)F)cc4)n3)cc2)c1` [F108, 1-(m-Tolyl)-3-(4-(1-(4-(trifluoromethoxy)phenyl)-1H-1,2,4-triazol-3-yl)benzyl)urea]: the mortality at 50 µg/cm2 in data set [1] and in data set [2] was 0% in each case. In data set [4], the “YFM % Control (or Mortality) rating” value is “D (No activity noticed in this bioassay)”.

Take `COc1ccc(NC(=O)NCc2ccc(-c3ncn(-c4ccc(OC(F)(F)F)cc4)n3)cc2)cc1` [F109, 1-(4-Methoxyphenyl)-3-(4-(1-(4-(trifluoromethoxy)phenyl)-1H-1,2,4-triazol-3-yl)benzyl)urea]: the mortality at 50 µg/cm2 in data set [1] and in data set [2] was 0% in each case. Moreover, the “YFM % Control (or Mortality) rating” value in data set [4] is given as “D (No activity noticed in this bioassay)”.

For the origin of these results see patent publication US9445594B2, “Molecules having certain pesticidal utilities, intermediates, compositions, and processes, related thereto” (priority 2014, dated 2016).
